{
  "source": "patent US6538037B2",
  "about": "“Methods for preparation and use of 1α,24(S)-dihydroxyvitamin D2” (Bone Care International, Inc., priority 1991, dated 2003)",
  "key": {"[1]": {"assay": "Blood metabolite levels in osteoporotic women administered 1α-OH-D2", "type": "in vivo, human", "procedure": "An increase in the production of 1α,24(S)-(OH)2D2 relative to 1α,25-(OH)2D2 has also been observed by the present inventors in human females who received 1α-OH-D2 as part of an investigation of that drug for the treatment of osteoporosis. Following either a single dose of 2 μg of 1α-OH-D2 or daily doses of 8 μg/day for one week, blood was collected and analyzed for the metabolites 1α,24(S)-(OH)2D2 and 1α,25-(OH)2D2. Lipid was extracted from the blood, and the metabolites were purified by HPLC using standard methods and quantified with the radioreceptor assay produced by Incstar (Stillwater, Minn.). One day after a single 2 μg dose, the level of 1α,24(S)-(OH)2D2 was undetectable with the 1α,25-(OH)2D2 level being approximately 11 pg/ml. In contrast, one day following the last dose of 8 μg, the level of 1α,24(S)-(OH)2D2 averaged 9 pg/mL with the 1α,25-(OH)2D2 level averaging 30 pg/mL."}, "bovine thymus VDR": {"target": "T1, bovine thymus VDR (Bos taurus, UniProt Q28037)", "T1 construct": "commercially available reagents of bovine thymus VDR; purchased Incstar (Stillwater, Minn.); host or cells: bovine thymus", "T1 sequence (Q28037 1-426)": "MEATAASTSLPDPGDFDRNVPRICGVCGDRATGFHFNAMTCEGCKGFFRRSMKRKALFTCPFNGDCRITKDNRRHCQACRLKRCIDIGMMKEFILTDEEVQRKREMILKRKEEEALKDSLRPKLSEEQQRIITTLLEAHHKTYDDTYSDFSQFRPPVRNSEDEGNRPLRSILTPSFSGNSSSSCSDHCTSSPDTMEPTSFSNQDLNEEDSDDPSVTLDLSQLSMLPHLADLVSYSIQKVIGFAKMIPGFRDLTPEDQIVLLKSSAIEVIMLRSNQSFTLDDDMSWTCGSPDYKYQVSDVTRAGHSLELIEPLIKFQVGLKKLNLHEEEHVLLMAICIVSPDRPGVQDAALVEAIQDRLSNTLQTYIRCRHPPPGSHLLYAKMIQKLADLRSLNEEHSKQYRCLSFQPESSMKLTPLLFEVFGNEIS", "assay": "Radioreceptor assay, displacement of 3H-1α,25-(OH)2D3 tracer from bovine thymus VDR", "type": "binding", "procedure": "Purified 1α,24(S)-(OH)2D2 was quantitated by photodiode array spectrophotometry and assayed in the radioreceptor assay.\nThe purified 1α,24(R)-(OH)2D2 and 1α,24(S)-(OH)2D2 epimers were quantitated by ultraviolet spectroscopy.\nThe binding affinities of the environmentally exposed compounds, crystalline 1α,24-dihydroxyvitamin D2 and powdered 1α,24-dihydroxyvitamin D2, to the vitamin D receptor (VDR) were assessed using methods known in the art, as described, e.g., in Example 6. […] The percent bound versus amount of compound in pg/tube are graphed in FIG. 5."}},
  "note": "Entries after “also recorded” stand apart in the source; their conditions may differ.",
  "data": [
    {"smiles": "C=C1/C(=C\\C=C2/CCC[C@]3(C)[C@@H]([C@H](C)/C=C/[C@@](C)(O)C(C)C)CC[C@@H]23)C[C@@H](O)C[C@@H]1O", "note": "[1α,24(S)-(OH)2D2, 1α,24(S)-dihydroxyvitamin D2]", "values": [
      {"measurement": "blood level of metabolite", "setting": "[1]; one day after a single 2 μg dose of 1α-OH-D2", "value": "undetectable"},
      {"measurement": "blood level of metabolite (average)", "setting": "[1]; one day following the last dose of 8 μg/day 1α-OH-D2 for one week", "value": 9, "unit": "pg/mL"},
      {"measurement": "affinity for VDR relative to 1α,25-(OH)2D3", "setting": "bovine thymus VDR", "value": "two-fold lower affinity; also recorded: two-fold less competitive"},
      {"measurement": "IC50", "setting": "bovine thymus VDR; radioreceptor assay, Incstar kit, read-out: half-maximal binding (converted)", "value": "~0.35", "unit": "nM"}
    ]}
  ]
}
